Read-outs that look alike come from different tables or passages of the source.
Columns and labels:
[1] = system: Diabrotica balteata (Corn Root Worm); test: Example B1: Activity against Diabrotica balteata (corn root worm), sprayed maize sprouts; type: in vivo; details: 96 h, application rate 200 ppm, L2 larvae on sprayed maize sprouts, 4 days after infestation, read-out: effect in at least one of the two categories (mortality or growth inhibition)
Experimental: Example B1: Activity Against Diabrotica balteata (Corn Root Worm)
Maize sprouts placed onto an agar layer in 24-well microtiter plates were treated with aqueous test solutions prepared from 10′000 ppm DMSO stock solutions by spraying. After drying, the plates were infested with L2 larvae (6 to 10 per well). The samples were assessed for mortality and growth inhibition in comparison to untreated samples 4 days after infestation.

[2] = system: Euschistus heros (Neotropical Brown Stink Bug); test: Example B2: Activity against Euschistus heros (neotropical brown stink bug), sprayed soybean leaves; type: in vivo; details: 120 h, application rate 200 ppm, N2 nymphs on sprayed soybean leaves, 5 days after infestation, read-out: effect in at least one of the two categories (mortality or growth inhibition)
Experimental: Example B2: Activity Against Euschistus heros (Neotropical Brown Stink Bug)
Soybean leaves on agar in 24-well microtiter plates were sprayed with aqueous test solutions prepared from 10′000 ppm DMSO stock solutions. After drying the leaves were infested with N2 nymphs. The samples were assessed for mortality and growth inhibition in comparison to untreated samples 5 days after infestation.

[3] = system: Plutella xylostella (Diamond Back Moth); test: Example B3: Activity against Plutella xylostella (diamond back moth), artificial diet; type: in vivo; details: 192 h, application rate 200 ppm, eggs on artificial diet, 8 days after infestation, read-out: effect in at least one of the two categories (mortality or growth inhibition)
[4] = system: Myzus persicae (Green Peach Aphid); test: whole plant or invertebrate; type: in vivo; details: foliar, 144 h, application rate 200 ppm, sprayed sunflower leaf discs, mixed ages, 6 days after infestation
Experimental: Example B4: Activity Against Myzus persicae (Green Peach Aphid) Feeding/Contact Activity
Sunflower leaf discs were placed onto agar in a 24-well microtiter plate and sprayed with aqueous test solutions prepared from 10′000 ppm DMSO stock solutions. After drying, the leaf discs were infested with an aphid population of mixed ages. The samples were assessed for mortality 6 days after infestation.

[5] = system: Myzus persicae (Green Peach Aphid); test: Example B5: Activity against Myzus persicae (green peach aphid), systemic activity; type: in vivo; details: 144 h, test rate 24 ppm, roots of pea seedlings in test solution, mixed ages, 6 days
Experimental: Example B5: Activity Against Myzus persicae (Green Peach Aphid) Systemic Activity
Roots of pea seedlings infested with an aphid population of mixed ages were placed directly into aqueous test solutions prepared from 10′000 DMSO stock solutions. The samples were assessed for mortality 6 days after placing seedlings into test solutions.

[6] = system: Spodoptera littoralis (Egyptian Cotton Leaf Worm); test: Example B6: Activity against Spodoptera littoralis (Egyptian cotton leaf worm); type: in vivo; details: foliar, 72 h, application rate 200 ppm, L1 larvae on sprayed cotton leaf discs, 3 days after infestation, read-out: control (mortality, anti-feeding effect or growth inhibition)
Outline: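 Cotton leaf discs on agar were sprayed with aqueous test solutions prepared from 10'000 ppm DMSO stocks. After drying, each disc was infested with five L1 larvae. Mortality, anti-feeding and growth inhibition were scored against untreated samples 3 days after infestation.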

[7] = system: Frankliniella occidentalis (Western Flower Thrips); test: Example B8: Activity against Frankliniella occidentalis (western flower thrips); type: in vivo; details: foliar, 168 h, application rate 200 ppm, sprayed sunflower leaf discs, mixed ages, 7 days after infestation
Experimental: Example B8: Activity Against Frankliniella occidentalis (Western Flower Thrips)
Sunflower leaf discs were placed on agar in 24-well microtiter plates and sprayed with aqueous test solutions prepared from […] stock solutions. After drying the leaf discs were infested with a Frankliniella population of mixed ages. The samples were assessed for mortality 7 days after infestation.

[8] = system: Bemisia tabaci (Cotton White Fly); test: Example B7: Activity against Bemisia tabaci (cotton white fly); type: in vivo; details: foliar, 144 h, application rate 200 ppm, adult white flies on sprayed cotton leaf discs, 6 days after incubation
Experimental: Example B7: Activity Against Bemisia tabaci (Cotton White Fly)
Cotton leaf discs were placed on agar in 24-well microtiter plates and sprayed with aqueous test solutions prepared from 10′000 ppm DMSO stock solutions. After drying the leaf discs were infested with adult white flies. The samples were checked for mortality 6 days after incubation.

[9] = system: Tetranychus urticae (Two-Spotted Spider Mite); test: Example B9: Activity against Tetranychus urticae (two-spotted spider mite); type: in vivo; details: foliar, 192 h, read-out: mortality on mixed population (mobile stages)
Experimental: Example B9: Activity Against Tetranychus urticae (Two-Spotted Spider Mite)
Bean leaf discs on agar in 24-well microtiter plates were sprayed with aqueous test solutions prepared from 10′000 ppm DMSO stock solutions. After drying the leaf discs were infested with a mite population of mixed ages. The samples were assessed for mortality on mixed population (mobile stages) 8 days after infestation.

Structure (SMILES) | melting point | percent effect (mortality or growth inhibition) at 200 ppm [1] | percent effect (mortality or growth inhibition) at 200 ppm [2] | percent effect (mortality or growth inhibition) at 200 ppm [3] | mortality at 200 ppm [4] | mortality at 24 ppm [5] | percent control (mortality, anti-feedant effect or growth inhibition) at 200 ppm [6] | mortality at 200 ppm [7] | mortality at 200 ppm [8] | mortality at 200 ppm ([9]; application rate 200 ppm, sprayed bean leaf discs, 8 days after infestation) | mortality at 200 ppm [9]
CCS(=O)(=O)c1ccc(N(C)C(=O)NC)nc1-c1cc2ccn(CC(F)(F)C(F)(F)F)c2cn1 [Compound P13, 1-[5-ethylsulfonyl-6-[1-(2,2,3,3,3-pentafluoropropyl)pyrrolo[2,3-c]pyridin-5-yl]-2-pyridyl]-1,3-dimethyl-urea] | 214 to 217 °C | – | – | – | – | – | – | – | – | – | –
CCS(=O)(=O)c1ccc(-c2ncccn2)nc1-c1cc2cnn(CC(F)(F)C(F)(F)F)c2cn1 [Compound P25, 5-(3-ethylsulfonyl-6-pyrimidin-2-yl-2-pyridyl)-1-(2,2,3,3,3-pentafluoropropyl) pyrazolo[3,4-c]pyridine] | – | ≥ 80% | ≥ 80% | ≥ 80% | ≥ 80% | ≥ 80% | ≥ 80% | ≥ 80% | – | – | –
CCSc1cc(C(C)(C)C#N)cnc1-c1cc2cnn(CC(F)(F)C(F)(F)F)c2cn1 [Compound P6, 2-[5-ethylsulfanyl-6-[1-(2,2,3,3,3-pentafluoropropyl)pyrazolo[3,4-c]pyridin-5-yl]-3-pyridyl]-2-methyl-propanenitrile] | – | ≥ 80% | ≥ 80% | ≥ 80% | ≥ 80% | – | ≥ 80% | ≥ 80% | ≥ 80% | – | –
CCSc1ccc(Cl)nc1-c1cc2ccn(CC(F)(F)C(F)(F)F)c2cn1 [Compound P48, 5-(6-chloro-3-ethylsulfanyl-2-pyridyl)-1-(2,2,3,3,3-pentafluoropropyl) pyrrolo[2,3-c]pyridine] | 185 to 188 °C | – | – | – | – | – | – | – | – | – | –
CCSc1cc(C(C)(C)C#N)c[n+]([O-])c1-c1cc2ccn(CC(F)(F)C(F)(F)F)c2cn1 [PN6, 2-[5-ethylsulfanyl-1-oxido-6-[1-(2,2,3,3,3-pentafluoropropyl)pyrrolo[2,3-c]pyridin-5-yl]pyridin-1-ium-3-yl]-2-methyl-propanenitrile] | – | – | – | – | – | – | – | – | – | ≥ 80% | –
CCS(=O)(=O)c1cc(C2(C#N)CC2)cnc1-c1cc2cnn(CC(F)(F)C(F)(F)F)c2cn1 [Compound P11, 1-[5-ethylsulfonyl-6-[1-(2,2,3,3,3-pentafluoropropyl)pyrazolo[3,4-c]pyridin-5-yl]-3-pyridyl]cyclopropanecarbonitrile] | – | ≥ 80% | ≥ 80% | ≥ 80% | ≥ 80% | – | ≥ 80% | ≥ 80% | ≥ 80% | – | –
CCS(=O)(=O)c1cc(C(F)(F)F)cnc1-c1cc2cnn(CC(F)(F)C(F)(F)F)c2cn1 [Compound P31, 5-[3-ethylsulfonyl-5-(trifluoromethyl)-2-pyridyl]-1-(2,2,3,3,3-pentafluoropropyl) pyrazolo[3,4-c] pyridine] | – | ≥ 80% | ≥ 80% | ≥ 80% | – | – | ≥ 80% | – | ≥ 80% | – | –
CCS(=O)(=O)c1cc(C(C)(C)C#N)cnc1-c1cc2cnn(CC(F)(F)C(F)(F)F)c2cn1 [Compound P5, 2-[5-ethylsulfonyl-6-[1-(2,2,3,3,3-pentafluoropropyl)pyrazolo[3,4-c]pyridin-5-yl]-3-pyridyl]-2-methyl-propanenitrile] | – | ≥ 80% | ≥ 80% | ≥ 80% | ≥ 80% | ≥ 80% | ≥ 80% | – | ≥ 80% | – | –
CCSc1ccc[n+]([O-])c1-c1cc2ccn(CC(F)(F)C(F)(F)F)c2cn1 [PN2, 5-(3-ethylsulfanyl-1-oxido-pyridin-1-ium-2-yl)-1-(2,2,3,3,3-pentafluoropropyl) pyrrolo[2,3-c]pyridine] | 181 to 185 °C | – | – | – | – | – | – | – | – | – | –
CCS(=O)(=O)c1ccc(C2CC2)nc1-c1cc2cnn(CC(F)(F)C(F)(F)F)c2cn1 [Compound P26, 5-(6-cyclopropyl-3-ethylsulfonyl-2-pyridyl)-1-(2,2,3,3,3,- pentafluoropropyl) pyrazolo[3,4-c]pyridine] | – | ≥ 80% | ≥ 80% | ≥ 80% | ≥ 80% | – | ≥ 80% | ≥ 80% | – | – | ≥ 80%

Reference: patent publication US20220132852A1, “PESTICIDALLY ACTIVE HETEROCYCLIC DERIVATIVES WITH SULFUR CONTAINING SUBSTITUENTS” (SYNGENTA CROP PROTECTION AG, priority 2019, published 2022)
